Converted amounts (≈) assume the structure as drawn. Square brackets hold non-standard residues; d marks the D form. Peptide text beside a SMILES is read from it. * marks the point of attachment. Orn = NCCC[C@H](N)C(=O)O; βNA = c1ccc2cc(N*)ccc2c1
How the values were obtained:
Pseudomonas aeruginosa [1] = experiment: Minimum Inhibitory concentration required to reduce the MIC of levofloxacin by 8-fold against PAM 1032; type: functional
Pseudomonas aeruginosa [2] = experiment: Minimum Inhibitory concentration required to inhibit the growth of Pseudomonas aeruginosa (strain PAM 1032).; type: functional
Pseudomonas aeruginosa [3] = experiment: (§1) Volume of synergy by MacSynergy II 3-D analysis.; type: functional
[4] = Volume of synergy by MacSynergy II 3-D analysis
Pseudomonas aeruginosa [5] = experiment: Minimum Inhibitory concentration required to inhibit the growth of Pseudomonas aeruginosa (strain PAM 1032); type: functional
Pseudomonas aeruginosa [6] = experiment: Minimum inhibitory concentration of Levofloxacin in presence at a concentration of 5 ug/mL against PAM 1032; type: functional
Pseudomonas aeruginosa [7] = experiment: Minimum Inhibitory concentration required to reduce the MIC of levofloxacin by 8-fold against PAM 1033; type: functional
Pseudomonas aeruginosa [8] = experiment: Minimum inhibitory concentration of Levofloxacin in presence at a concentration of 50 ug/mL against PAM 1033; type: functional
Pseudomonas aeruginosa [9] = experiment: Minimum inhibitory concentration of Levofloxacin in presence at a concentration of 2.5 ug/mL against PAM 1034; type: functional
Pseudomonas aeruginosa [10] = experiment: Minimum inhibitory concentration of Levofloxacin in presence at a concentration of 20 ug/mL against PAM 1033; type: functional
Pseudomonas aeruginosa [11] = experiment: Minimum inhibitory concentration of Levofloxacin in presence at a concentration of 0 ug/mL against PAM 1032; type: functional
Pseudomonas aeruginosa [12] = experiment: Minimum inhibitory concentration of Levofloxacin in presence at a concentration of 40 ug/mL against PAM 1032; type: functional
Pseudomonas aeruginosa [13] = experiment: Minimum inhibitory concentration of Levofloxacin in presence at a concentration of 10 ug/mL against PAM 1032; type: functional
Pseudomonas aeruginosa [14] = experiment: Minimum inhibitory concentration of Levofloxacin in presence at a concentration of 10 ug/mL against PAM 1034; type: functional
Pseudomonas aeruginosa [15] = experiment: Minimum inhibitory concentration of Levofloxacin in presence at a concentration of 5 ug/mL against PAM 1034; type: functional
Pseudomonas aeruginosa [16] = experiment: Minimum Inhibitory concentration required to reduce the MIC of levofloxacin by 8-fold against PAM 1034; type: functional
Pseudomonas aeruginosa [17] = experiment: Minimum inhibitory concentration of Levofloxacin in presence at a concentration of 10 ug/mL against PAM 1033; type: functional
Pseudomonas aeruginosa [18] = experiment: Minimum inhibitory concentration of Levofloxacin in presence at a concentration of 40 ug/mL against PAM 1033; type: functional
Pseudomonas aeruginosa [19] = experiment: Minimum inhibitory concentration of Levofloxacin in presence at a concentration of 0 ug/mL against PAM 1033; type: functional
Pseudomonas aeruginosa [20] = experiment: Minimum inhibitory concentration of Levofloxacin in presence at a concentration of 40 ug/mL against PAM 1034; type: functional
Pseudomonas aeruginosa [21] = experiment: Minimum inhibitory concentration of Levofloxacin in presence at a concentration of 1.25 ug/mL against PAM 1032; type: functional
Pseudomonas aeruginosa [22] = experiment: Minimum inhibitory concentration of Levofloxacin in presence at a concentration of 20 ug/mL against PAM 1032; type: functional
Pseudomonas aeruginosa [23] = experiment: Minimum inhibitory concentration of Levofloxacin in presence at a concentration of 2.5 ug/mL against PAM 1032; type: functional
Pseudomonas aeruginosa [24] = experiment: Minimum inhibitory concentration of Levofloxacin in presence at a concentration of 1.25 ug/mL against PAM 1033; type: functional
Pseudomonas aeruginosa [25] = experiment: Minimum inhibitory concentration of Levofloxacin in presence at a concentration of 20 ug/mL against PAM 1034; type: functional
Pseudomonas aeruginosa [26] = experiment: Minimum inhibitory concentration of Levofloxacin in presence at a concentration of 2.50 ug/mL against PAM 1033; type: functional
Pseudomonas aeruginosa [27] = experiment: Minimum inhibitory concentration of Levofloxacin in presence at a concentration of 1.25 ug/mL against PAM 1034; type: functional
Pseudomonas aeruginosa [28] = experiment: Minimum inhibitory concentration of Levofloxacin in presence at a concentration of 0 ug/mL against PAM 1034; type: functional
[29] = as §1
Pseudomonas aeruginosa [30] = experiment: Minimum inhibitory concentration of Levofloxacin in presence at a concentration of 5 ug/mL against PAM 1034.; type: functional
Pseudomonas aeruginosa [31] = experiment: Minimum inhibitory concentration of Levofloxacin in presence at a concentration of 40 ug/mL against PAM 1033.; type: functional
Pseudomonas aeruginosa [32] = experiment: Minimum inhibitory concentration of Levofloxacin in presence at a concentration of 10 ug/mL against PAM 1033.; type: functional
Pseudomonas aeruginosa [33] = experiment: Minimum Inhibitory concentration required to reduce the MIC of levofloxacin by 8-fold against PAM 1033.; type: functional
Pseudomonas aeruginosa [34] = experiment: Minimum Inhibitory concentration required to reduce the MIC of levofloxacin by 8-fold against PAM 1034.; type: functional
Pseudomonas aeruginosa [35] = experiment: Minimum inhibitory concentration of Levofloxacin in presence at a concentration of 2.5 ug/mL against PAM 1034.; type: functional
Pseudomonas aeruginosa [36] = experiment: Minimum inhibitory concentration of Levofloxacin in presence at a concentration of 20 ug/mL against PAM 1034.; type: functional
Pseudomonas aeruginosa [37] = experiment: Minimum inhibitory concentration of Levofloxacin in presence at a concentration of 50 ug/mL against PAM 1033.; type: functional
Pseudomonas aeruginosa [38] = experiment: Minimum inhibitory concentration of Levofloxacin in presence at a concentration of 40 ug/mL against PAM 1034.; type: functional
Pseudomonas aeruginosa [39] = experiment: Minimum inhibitory concentration of Levofloxacin in presence at a concentration of 20 ug/mL against PAM 1033.; type: functional
Pseudomonas aeruginosa [40] = experiment: Minimum inhibitory concentration of Levofloxacin in presence at a concentration of 0 ug/mL against PAM 1034.; type: functional
Pseudomonas aeruginosa [41] = experiment: Minimum inhibitory concentration of Levofloxacin in presence at a concentration of 10 ug/mL against PAM 1034.; type: functional
Pseudomonas aeruginosa [42] = experiment: Minimum inhibitory concentration of Levofloxacin in presence at a concentration of 1.25 ug/mL against PAM 1034.; type: functional
Pseudomonas aeruginosa [43] = experiment: Minimum inhibitory concentration of Levofloxacin in presence at a concentration of 2.50 ug/mL against PAM 1033.; type: functional

NCCC[C@H](NC(=O)[C@@H](N)Cc1ccccc1)C(=O)Nc1ccc2ccccc2c1
MPC8 (Pseudomonas aeruginosa [1]): 5 µg/mL
MIC (Pseudomonas aeruginosa [2]): 512 µg/mL (≈ 1270 µM)
VOLSYN (Pseudomonas aeruginosa [3]): 1760

CN(C(=O)[C@@H](N)Cc1ccccc1)[C@@H](CCCN)C(=O)Nc1ccc2ccccc2c1
MPC8 (Pseudomonas aeruginosa [1]): 5 µg/mL
MIC (Pseudomonas aeruginosa [2]): 256 µg/mL (≈ 612 µM)
VOLSYN (Pseudomonas aeruginosa [3]): 2825

NCCCC[C@H](NC(=O)[C@@H](N)Cc1ccccc1)C(=O)Nc1ccc2ccccc2c1
MPC8 (Pseudomonas aeruginosa [1]): 10 µg/mL
MIC (Pseudomonas aeruginosa [2]): > 512 µg/mL
VOLSYN (Pseudomonas aeruginosa [3]): 1390

C[C@H](N)C(=O)N[C@@H](CCCN)C(=O)Nc1ccc2ccccc2c1 (H-Ala-[Orn]-βNA)
MPC8 (Pseudomonas aeruginosa [1]): 40 µg/mL
MIC (Pseudomonas aeruginosa [2]): > 512 µg/mL
VOLSYN (Pseudomonas aeruginosa [3]): 486

N[C@@H](Cc1ccccc1)C(=O)N[C@@H](Cc1c[nH]cn1)C(=O)Nc1ccc2ccccc2c1 (H-Phe-His-βNA)
MPC8 (Pseudomonas aeruginosa [1]): >40 µg/mL
MIC (Pseudomonas aeruginosa [2]): > 512 µg/mL
VOLSYN (Pseudomonas aeruginosa [3]): 463

NCCC[C@H](NC(=O)[C@@H](N)CCc1ccccc1)C(=O)Nc1ccc2c(c1)CCC2
VOLSYN [4]: 2220
MIC (Pseudomonas aeruginosa [5]): 256 µg/mL (≈ 627 µM)
MPC8 (Pseudomonas aeruginosa [1]): 2.5 µg/mL

NCCC[C@H](NC(=O)[C@@H](N)CCc1ccccc1)C(=O)Nc1cnc2ccccc2c1
VOLSYN [4]: 2590
MIC (Pseudomonas aeruginosa [6]): 0.125 µg/mL (≈ 0.298 µM)
MPC8 (Pseudomonas aeruginosa [7]): 2.5 µg/mL
MIC (Pseudomonas aeruginosa [8]): 0.125 µg/mL (≈ 0.298 µM)
MIC (Pseudomonas aeruginosa [9]): 1 µg/mL (≈ 2.38 µM)
MIC (Pseudomonas aeruginosa [10]): 0.06 µg/mL (≈ 0.143 µM)
MIC (Pseudomonas aeruginosa [11]): 2 µg/mL (≈ 4.77 µM)
MIC (Pseudomonas aeruginosa [12]): 0.06 µg/mL (≈ 0.143 µM)
MIC (Pseudomonas aeruginosa [13]): 0.06 µg/mL (≈ 0.143 µM)
MIC (Pseudomonas aeruginosa [14]): 0.125 µg/mL (≈ 0.298 µM)
MIC (Pseudomonas aeruginosa [15]): 0.25 µg/mL (≈ 0.596 µM)
MPC8 (Pseudomonas aeruginosa [16]): 5 µg/mL
MIC (Pseudomonas aeruginosa [17]): 0.06 µg/mL (≈ 0.143 µM)
MIC (Pseudomonas aeruginosa [18]): 0.06 µg/mL (≈ 0.143 µM)
MIC (Pseudomonas aeruginosa [19]): 4 µg/mL (≈ 9.53 µM)
MIC (Pseudomonas aeruginosa [20]): 0.125 µg/mL (≈ 0.298 µM)
MIC (Pseudomonas aeruginosa [21]): 1 µg/mL (≈ 2.38 µM)
MIC (Pseudomonas aeruginosa [22]): 0.06 µg/mL (≈ 0.143 µM)
MIC (Pseudomonas aeruginosa [5]): > 512 µg/mL
MIC (Pseudomonas aeruginosa [23]): 0.5 µg/mL (≈ 1.19 µM)
MIC (Pseudomonas aeruginosa [24]): 2 µg/mL (≈ 4.77 µM)
MPC8 (Pseudomonas aeruginosa [1]): 5 µg/mL
MIC (Pseudomonas aeruginosa [25]): 0.125 µg/mL (≈ 0.298 µM)
MIC (Pseudomonas aeruginosa [26]): 0.5 µg/mL (≈ 1.19 µM)
MIC (Pseudomonas aeruginosa [27]): 4 µg/mL (≈ 9.53 µM)
MIC (Pseudomonas aeruginosa [28]): 4 µg/mL (≈ 9.53 µM)

NCCC[C@H](NC(=O)[C@@H](N)Cc1ccc(F)cc1)C(=O)Nc1ccc2ccccc2c1
MPC8 (Pseudomonas aeruginosa [1]): 5 µg/mL
MIC (Pseudomonas aeruginosa [2]): 512 µg/mL (≈ 1210 µM)
VOLSYN (Pseudomonas aeruginosa [3]): 2343

NCCC[C@H](N)C(=O)Nc1ccc2ccccc2c1
MPC8 (Pseudomonas aeruginosa [1]): >40 µg/mL
MIC (Pseudomonas aeruginosa [2]): > 512 µg/mL
VOLSYN (Pseudomonas aeruginosa [3]): 183

NCCC[C@H](NC(=O)[C@@H](N)CCc1ccccc1)C(=O)Nc1ccc2ccccc2c1
MPC8 (Pseudomonas aeruginosa [1]): 2.5 µg/mL
MIC (Pseudomonas aeruginosa [2]): 128 µg/mL (≈ 306 µM)
VOLSYN (Pseudomonas aeruginosa [3]): 2612

NCCC[C@H](NC(=O)[C@@H](N)CCc1ccccc1)C(=O)Nc1ccc2ncccc2c1
VOLSYN [29]: 2060
MIC (Pseudomonas aeruginosa [5]): > 512 µg/mL
MPC8 (Pseudomonas aeruginosa [1]): 10 µg/mL

N=C(N)NCCC[C@H](NC(=O)[C@@H](N)Cc1ccccc1)C(=O)Nc1ccc2ccccc2c1 [PABETAN] (H-Phe-Arg-βNA)
MIC (Pseudomonas aeruginosa [30]): 1 µg/mL (≈ 2.24 µM)
MIC (Pseudomonas aeruginosa [6]): 0.5 µg/mL (≈ 1.12 µM)
MIC (Pseudomonas aeruginosa [11]): 2 µg/mL (≈ 4.48 µM)
MIC (Pseudomonas aeruginosa [12]): 0.06 µg/mL (≈ 0.134 µM)
MIC (Pseudomonas aeruginosa [13]): 0.125 µg/mL (≈ 0.28 µM)
MIC (Pseudomonas aeruginosa [31]): 0.125 µg/mL (≈ 0.28 µM)
MIC (Pseudomonas aeruginosa [32]): 0.125 µg/mL (≈ 0.28 µM)
MPC8 (Pseudomonas aeruginosa [33]): 5 µg/mL
MIC (Pseudomonas aeruginosa [19]): 4 µg/mL (≈ 8.96 µM)
MPC8 (Pseudomonas aeruginosa [34]): 10 µg/mL
MIC (Pseudomonas aeruginosa [21]): 2 µg/mL (≈ 4.48 µM)
MIC (Pseudomonas aeruginosa [35]): 4 µg/mL (≈ 8.96 µM)
MIC (Pseudomonas aeruginosa [22]): 0.06 µg/mL (≈ 0.134 µM)
MIC (Pseudomonas aeruginosa [36]): 0.06 µg/mL (≈ 0.134 µM)
MIC (Pseudomonas aeruginosa [37]): 0.5 µg/mL (≈ 1.12 µM)
MIC (Pseudomonas aeruginosa [5]): > 512 µg/mL
MIC (Pseudomonas aeruginosa [23]): 1 µg/mL (≈ 2.24 µM)
MIC (Pseudomonas aeruginosa [24]): 4 µg/mL (≈ 8.96 µM)
MPC8 (Pseudomonas aeruginosa [1]): 10 µg/mL
MIC (Pseudomonas aeruginosa [38]): 0.03 µg/mL (≈ 0.0672 µM)
MIC (Pseudomonas aeruginosa [39]): 0.125 µg/mL (≈ 0.28 µM)
MIC (Pseudomonas aeruginosa [40]): 4 µg/mL (≈ 8.96 µM)
MIC (Pseudomonas aeruginosa [41]): 0.25 µg/mL (≈ 0.56 µM)
MIC (Pseudomonas aeruginosa [42]): 4 µg/mL (≈ 8.96 µM)
VOLSYN (Pseudomonas aeruginosa [3]): 1962
MIC (Pseudomonas aeruginosa [43]): 2 µg/mL (≈ 4.48 µM)

NCCC[C@H](NC(=O)[C@@H](N)CCc1ccccc1)C(=O)Nc1ccccc1
VOLSYN [29]: 906
MIC (Pseudomonas aeruginosa [5]): > 512 µg/mL
MPC8 (Pseudomonas aeruginosa [1]): >40 µg/mL

From ChEMBL document CHEMBL1132113, “Inhibitors of efflux pumps in Pseudomonas aeruginosa potentiate the activity of the fluoroquinolone antibacterial levofloxacin” (1999)
